From the NIST ThermoML archive (doi:10.1016/j.fluid.2005.09.019)

Experiments:
[1] = wn = mass fraction of the nth substance listed; conditions: Other PVT measurement
[2] = Crystal; visual observation

CCCCCCCCOC(=O)c1cccc(-c2cccc(C(=O)OCCCCCCCC)c2)c1 [dioctyl [1,1'-biphenyl]-3,3'-dicarboxylate] + O=C=O
[1]
Conditions	mass density [kg/m3]
294.95 K, 21200 kPa, Gas, w1 = 0.018	883
295.55 K, 15610 kPa, Gas, w1 = 0.62	1089
296.05 K, 6100 kPa, Fluid (supercritical or subcritical phases), w1 = 0.277	750
298.55 K, 6480 kPa, Fluid (supercritical or subcritical phases), w1 = 0.277	734
302.15 K, 7070 kPa, Fluid (supercritical or subcritical phases), w1 = 0.277	701
304.15 K, 7450 kPa, Fluid (supercritical or subcritical phases), w1 = 0.277	682
305.75 K, 23790 kPa, Gas, w1 = 0.018	856
306.05 K, 16070 kPa, Gas, w1 = 0.62	1076
312.65 K, 17750 kPa, Gas, w1 = 0.62	1052
313.75 K, 126340 kPa, Gas, w1 = 0.496	1150
318.65 K, 92850 kPa, Gas, w1 = 0.496	1121
324.55 K, 104160 kPa, Gas, w1 = 0.092	1160
324.65 K, 110450 kPa, Gas, w1 = 0.286	1131
326.85 K, 147870 kPa, Gas, w1 = 0.131	1240
328.15 K, 88980 kPa, Gas, w1 = 0.092	1124
329.05 K, 27960 kPa, Gas, w1 = 0.018	804
329.05 K, 90520 kPa, Gas, w1 = 0.286	1097
329.05 K, 137580 kPa, Gas, w1 = 0.256	1150
329.15 K, 121140 kPa, Gas, w1 = 0.388	1178
329.35 K, 116110 kPa, Gas, w1 = 0.201	1141
330.85 K, 105180 kPa, Gas, w1 = 0.388	1139
330.85 K, 113860 kPa, Gas, w1 = 0.256	1125
331.25 K, 106000 kPa, Gas, w1 = 0.131	1160
332.25 K, 83070 kPa, Gas, w1 = 0.286	1083
332.65 K, 20850 kPa, Gas, w1 = 0.62	1031
333.45 K, 68350 kPa, Gas, w1 = 0.496	1075
333.65 K, 93560 kPa, Gas, w1 = 0.201	1111
340.55 K, 73300 kPa, Gas, w1 = 0.092	1062
341.95 K, 70330 kPa, Gas, w1 = 0.286	1044
344.15 K, 77780 kPa, Gas, w1 = 0.388	1077
344.35 K, 77640 kPa, Gas, w1 = 0.256	1045
345.15 K, 74290 kPa, Gas, w1 = 0.201	1048
347.45 K, 60240 kPa, Gas, w1 = 0.496	1049
348.95 K, 30510 kPa, Gas, w1 = 0.018	760
350.05 K, 73950 kPa, Gas, w1 = 0.131	1054
352.15 K, 66510 kPa, Gas, w1 = 0.092	1019
352.95 K, 62980 kPa, Gas, w1 = 0.286	1010
353.95 K, 24590 kPa, Gas, w1 = 0.62	1013
353.95 K, 69580 kPa, Gas, w1 = 0.256	1015
358.75 K, 65340 kPa, Gas, w1 = 0.201	1005
360.85 K, 67620 kPa, Gas, w1 = 0.388	876
363.25 K, 57970 kPa, Gas, w1 = 0.496	997
365.65 K, 63340 kPa, Gas, w1 = 0.092	979
365.85 K, 33480 kPa, Gas, w1 = 0.018	726
366.35 K, 66790 kPa, Gas, w1 = 0.131	1002
366.65 K, 59240 kPa, Gas, w1 = 0.286	976
369.85 K, 63030 kPa, Gas, w1 = 0.256	969
370.45 K, 27170 kPa, Gas, w1 = 0.62	997
372.25 K, 61790 kPa, Gas, w1 = 0.201	968

O=C(OCCC(F)(F)C(F)(F)C(F)(F)C(F)(F)C(F)(F)C(F)(F)F)c1cccc(-c2cccc(C(=O)OCCC(F)(F)C(F)(F)C(F)(F)C(F)(F)C(F)(F)C(F)(F)F)c2)c1 + O=C=O
[1], Fluid (supercritical or subcritical phases)
Conditions	mass density [kg/m3]
294.55 K, 5980 kPa, w1 = 0.135	744
295.05 K, 6070 kPa, w1 = 0.116	768
295.15 K, 6170 kPa, w1 = 0.016	745
295.55 K, 6240 kPa, w1 = 0.279	976
295.95 K, 6280 kPa, w1 = 0.405	1054
296.45 K, 6310 kPa, w1 = 0.334	950
296.55 K, 6380 kPa, w1 = 0.206	904
298.35 K, 6620 kPa, w1 = 0.206	900
298.75 K, 6590 kPa, w1 = 0.116	782
299.15 K, 6730 kPa, w1 = 0.405	1049
299.75 K, 6610 kPa, w1 = 0.273	933
299.75 K, 6900 kPa, w1 = 0.135	737
299.95 K, 6860 kPa, w1 = 0.279	962
300.55 K, 6930 kPa, w1 = 0.334	967
301.15 K, 6900 kPa, w1 = 0.273	932
301.95 K, 7070 kPa, w1 = 0.279	954
302.75 K, 7520 kPa, w1 = 0.016	689
303.15 K, 7240 kPa, w1 = 0.334	957
303.35 K, 7310 kPa, w1 = 0.116	763
303.35 K, 7340 kPa, w1 = 0.135	723
303.35 K, 7550 kPa, w1 = 0.206	880
303.45 K, 7240 kPa, w1 = 0.273	887
304.75 K, 8270 kPa, w1 = 0.279	952
305.35 K, 7520 kPa, w1 = 0.273	827
305.85 K, 7660 kPa, w1 = 0.273	782
305.95 K, 7620 kPa, w1 = 0.016	654
312.75 K, 10240 kPa, w1 = 0.116	752
318.45 K, 12270 kPa, w1 = 0.135	711
320.65 K, 13200 kPa, w1 = 0.279	925
321.05 K, 12890 kPa, w1 = 0.334	931
321.05 K, 13270 kPa, w1 = 0.206	856
322.65 K, 11510 kPa, w1 = 0.016	622
327.85 K, 14660 kPa, w1 = 0.405	1001
330.05 K, 15000 kPa, w1 = 0.405	999
332.45 K, 15960 kPa, w1 = 0.135	688
338.55 K, 17380 kPa, w1 = 0.116	719
342.75 K, 18790 kPa, w1 = 0.206	816
344.35 K, 18760 kPa, w1 = 0.334	898
345.35 K, 18820 kPa, w1 = 0.405	969
346.15 K, 19720 kPa, w1 = 0.279	879
347.75 K, 16790 kPa, w1 = 0.016	585
348.55 K, 19620 kPa, w1 = 0.135	665
360.65 K, 22690 kPa, w1 = 0.405	949
362.85 K, 23000 kPa, w1 = 0.206	777
363.55 K, 22380 kPa, w1 = 0.116	673
363.65 K, 23000 kPa, w1 = 0.334	862
363.75 K, 19380 kPa, w1 = 0.016	554
368.05 K, 24130 kPa, w1 = 0.279	835
369.65 K, 24030 kPa, w1 = 0.135	639

CCCCCCCCOC(=O)c1cccc(-c2cccc(C(=O)OCCCCCCCC)c2)c1 [dioctyl [1,1'-biphenyl]-3,3'-dicarboxylate]
Conditions	Normal melting temperature [°C]
[2]	29.00
